Reference: patent US7955596B2 (priority 2003, dated 2011)

Test system: B. anthracis strain 34F2ΔluxS
Assay type: cell-based

## CCCCC1=C(Br)/C(=C/Br)OC1=O [furanone 1, (5Z)-4-bromo-5-(bromomethylene)-3-butyl-2(5H)-furanone]
  Growth of the 34F2ΔluxS strain (OD600): dramatically inhibited
20 μg/ml, 30 hrs
  Growth inhibitory effect for 34F2ΔluxS relative to wild-type 34F2: prolonged
